Values quoted from earlier work in EP4160208A1, “URINE SEDIMENT STAINING LIQUID” (TOYOBO CO., LTD., priority 2020, dated 2021).

pKa	SMILES
6.80	NC(=O)CN(CC(=O)O)CC(=O)O [ADA]
7.50	O=S(=O)(O)CCNC(CO)(CO)CO [TES]
7.15	O=S(=O)(O)CCN(CCO)CCO [BES]
8.15	O=C(O)CNC(CO)(CO)CO [Tricine]

SMILES	pKa
O=S(=O)(O)CCN1CCN(CCO)CC1 [HEPES]	7.55
